# Source: patent US10017463B2, “Inhibitors of deubiquitinating proteases” (Brandeis University, priority 2014, dated 2018)
# Legend:
# UCHL3 = target: T1, UCHL3 (Mus musculus, UniProt Q9JKB1); assay: Cy5-Ub-VME activity profiling of treated BaF3/p210 cells, UCHL3; format: cell-based, murine; settings: 50 μM, 4 h
# T1 construct: endogenous in cells; host or cells: BaF3/p210
# T1 sequence (Q9JKB1 1-230): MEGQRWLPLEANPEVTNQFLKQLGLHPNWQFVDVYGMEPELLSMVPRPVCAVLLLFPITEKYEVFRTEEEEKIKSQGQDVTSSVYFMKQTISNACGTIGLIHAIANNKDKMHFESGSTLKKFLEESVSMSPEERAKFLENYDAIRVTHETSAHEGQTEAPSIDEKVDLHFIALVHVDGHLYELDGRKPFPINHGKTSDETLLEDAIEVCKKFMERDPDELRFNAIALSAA
# Protocol: (§1) FIG. 9 has two panels (A and B) depicting data showing that TUs inhibit DUBs in cells. BaF3/p210 cells were incubated with the stated concentration of compound for 4 h. After this time cells were lysed using beads, lysates were normalized, then exposed to Cy5-Ub-VME for 5 min. After quenching, lysates were resolved by SDS-PAGE, analyzed on typhoon, then stained by Coomassie. Panel A is an image of the SDS-PAGE gel visualized via Typhoon imager. Panel B is an image of the SDS PAGE gel stained with Coomassie.
# (§2) The increased promiscuity of the inhibitors when the experiment is carried out in cells likely stems from the increased assay time (4 h vs 20 min) coupled with the slow on rates of the inhibitors and their targets.
# DUBs = assay: Cy5-Ub-VME activity profiling of treated BaF3/p210 cells; format: cell-based, murine; settings: 50 μM, 4 h
# Protocol: as §1
# Panel A is the chemical structure of TU71. Panel B is an image of an immunoblot showing a K562 cell was treated with TU71 for 15 min at which time HAUb-VS was added. After an additional 15 min, aliquots were quenched in reducing loading buffer and analyzed by SDS-PAGE and HA blot. […] BaF3/p21 0 cells were treated with TU71 for 2.5 h (Panel C) or 4 h (Panel D). Cells were harvested, lysed and incubated (0.7 mg/mL protein) with 250 nM Cy5-UbVME for 5 min at 37° C. […] Panel E is an image of an immunoblot showing BaF3/p210 cells were incubated with TU71 for 4 h. The cells were harvested, lysed, analyzed by SDS-PAGE and immunoblotted as indicated. “cPARP” indicates the caspase cleavage of product of PARP and is indicative of apoptosis. Panel F is a bar graph showing data representative of mean±range of two independent experiments, one performed in duplicate of the blot depicted in Panel E.
# as §2
# B16-F10 = assay: Proliferation assay, B16-F10; settings: Mus musculus, B16-F10, 72 h, read-out: EC50 growth inhibition B16-F10
# Protocol: (§5) Proliferation assays for adherent cells were conducted by plating cells at 5%-10% confluence in 96 well plates together with compound or 0.1% DMSO. Cells were allowed to grow for 48 h and then Alamar Blue® was added and number of cells was measured by fluorescence on a microplate reader.
# G76VUb-GFP in COS1 cells = assay: UbG76V-GFP proteasome assay in COS1 cells; format: cell-based
# Protocol: COS1 cells at approx. 75% confluence in a 48 well plate were transiently transfected with a plasmid encoding G76VUb-GFP using Mirus 2020 reagent. After this time media with either compound in DMSO or 1% DMSO was added to the cells and the cells were incubated for 8 h. After this time, cells were trypsinized, diluted with 1% FBS in PBS (FACS buffer) then centrifuged at 700 g. After this time cells on ice were treated with FACS buffer containing propidium iodide (0.05 mg/mL). The GFP (indicating proteasome activity) and red fluorescence (dye exclusion showing acute toxicity) were subsequently measured by FACS.
# MCL1 = MCL1 immunoblot in BaF3 parent cells; format: cell-based; settings: 15 and 30 μM, 4 h
# Description: Panel A is an image of a immunoblot showing knockdown of MCL-1 by TU46. […] Panel C is a bar graph showing the quantitation of the blots in Panel A and Panel B.
# MCL1 is required to sustain growth of many transformed cells and is also regulated by USP9x. […] These findings help to explain why these compounds are toxic to Bcr-Abl independent cancer lines, especially BaF3.
# [1] = target: T2, recombinant human 20S proteasome (Homo sapiens, UniProt P28074); assay: 20S proteasome assay (Suc-Leu-Leu-Val-Tyr-AMC); format: biochemical; settings: 50 μM for the TU compounds (FIG. 6D)
# T2 construct: purchased Boston Biochem
# Protocol: To recombinant human 20S proteasome ([…]) in 50 mM potassium phosphate pH 7.6, 50 mM NaCl, 1 mM DTT was added the compound or DMSO. This mixture was incubated at 25° C. for 30 min after which time substrate (Suc-Leu-Leu-Val-Tyr-AMC, 100 μM or 17 μM) was added and release of AMC was measured as a function of time using a plate reader for 30 min. The steady state rates were calculated and normalized to the DMSO rate. The concentration of inhibitor required to inhibit the enzyme by 50% was calculated using prism.
# HeLa cells = assay: Annexin V-FITC/PI apoptosis assay, HeLa; format: cell-based; settings: 15 or 30 μM, 24 h
# Protocol: (§3) (each point is shown as mean+/−s.d. of 2 replicates). Panel A is a bar graph showing the data for HeLa cells (30 μM); Panel B is a bar graph showing the data for K562 (30 μM); Panel C is a bar graph showing the data for K562 (15 μM).
# (§4) Since K562 cells are dependent upon Bcr-Abl for survival, it was predicted that these cells would also be susceptible to TU compounds. However, K562 cells gave a very weak signal in the Alamar Blue® assay. In lieu of the Alamar Blue assay, an apoptosis assay was used to show susceptibility. This assay uses fluorescein-modified Annexin V to detect phosphatidyl serine (PS) on the cell surface. See Vermes et al., J. Immon. Meth. 184, 39-51 (1995). PS is typically expressed on the inner leaflet of the cell membrane. However in the early stages of apoptosis, PS translocates to the outer leaflet and can be bound by Annexin V. Thus, during apoptosis cells will become greener in the presence of Annexin V-Fluorescine.
# 3T3 = assay: Proliferation assay, 3T3; settings: Mus musculus, NIH3T3, 72 h, read-out: EC50 growth inhibition 3T3
# Protocol: as §5
# K562 cells = assay: Annexin V-FITC/PI apoptosis assay, K562; format: cell-based; settings: 15 or 30 μM, 24 h
# Protocol: as §3, §4
# BaF3/p210 cells = assay: Proliferation assay (Alamar Blue), BaF3/p210; format: cell-based, murine; settings: for EC50: Mus musculus, BaF3, fresh media with compound added after 24 h, 24 h further growth, read-out: EC50 (viable cells)
# Description: This cell line consists of engineered murine leukemia cells that ectopically express Bcr-Abl. Parent BaF3 cells require exogenous interleukin 3 (IL3) because IL3 stimulates expression of MCL1, which is required for survival. However, BaF3/p210 cells require no exogenous interleukins but need Bcr-Abl for survival.
Compound,effect on UCHL3 (UCHL3),Cy5-Ub-VME labelled bands after treatment of cells (DUBs),EC50 (B16-F10) [µM],"inhibition of the proteasome in G76VUb-GFP assay (G76VUb-GFP in COS1 cells; COS1, 8 h)","GFP signal (G76VUb-GFP in COS1 cells; COS1, at 50 μM)",knockdown of MCL1 (MCL1),inhibition of pure 20S proteasome [1],apoptosis in HeLa (HeLa cells),EC50 (3T3) [µM],apoptosis and necrosis in K562 (K562 cells),growth inhibition of BaF3/p210 cells (BaF3/p210 cells),selectivity for BaF3/p210 over NIH3T3 cells (BaF3/p210 cells),selectivity for BaF3/p210 over other cancer lines (BaF3/p210 cells),EC50 (BaF3/p210 cells) [µM],"GFP signal (G76VUb-GFP in COS1 cells; COS1, 8 h)"
CC(C)(C)OC(=O)NCCc1ccc(N=C=S)cc1 [TU46],relatively unaffected,decrease in a number of bands in addition to the band corresponding to USP9x,70 ± 20,did not inhibit,slight increase in GFP signal,very effective,did not inhibit,no apoptosis was detected,> 110,large increase in both apoptosis and necrosis,good growth inhibition,over a ten-fold selectivity,at least a five-fold selectivity,11,
O=C(NCc1ccc(N=C=S)cc1)OCc1ccccc1 [TU49],relatively unaffected,decrease in a number of bands in addition to the band corresponding to USP9x,~30,did not inhibit,,not as efficient,did not inhibit,no apoptosis was detected,> 110,large increase in both apoptosis and necrosis,good growth inhibition,,,,decreased the GFP signal
CC(C)(C)OC(=O)NCc1cccc(N=C=S)c1 [TU50],relatively unaffected,decrease in a number of bands in addition to the band corresponding to USP9x,85 ± 10,did not inhibit,,very effective,did not inhibit,no apoptosis was detected,80 ± 10,large increase in both apoptosis and necrosis,good growth inhibition,over a ten-fold selectivity,at least a five-fold selectivity,16,decreased the GFP signal
